The text below walks through data of patent US8765802B2, “Kinase inhibitors, compositions thereof, and methods of use therewith” (Provid Pharmaceuticals, Inc., priority 2007, dated 2014).

pEC50: −log10 of the molar value.

The target in one experiment is T1, Chk2 (Homo sapiens, UniProt O96017).
T1 construct: made in house; host or cells: E. coli BL21 Star (Invitrogen)
In words: Chk2 inhibitor IMAP assay (high-throughput Chk2 screening assay). It is filed as biochemical. Conditions: IMAP fluorescence polarization assay, 10 μM ATP. As to the method: Compounds set forth in Table 1 were tested in the Chk2 inhibitor IMAP assay described herein in Example 6.84. […] The letters given for the Chk2 EC50 values in Table 1 represent the following ranges: A=<100 nM; B=100-300 nM; C=300-1000 nM; D=1-10 μM; and E>10 μM.
Compounds can be screened for Chk2 inhibitory activity using a high-throughput screening assay based in the immobilized metal ion affinity-based fluorescence polarization (IMAP) assay developed by Molecular Devices. This assay is based on the high affinity binding of phosphate by immobilized metal (MIII) coordination complexes on nanoparticles. A fluorescein-labeled peptide substrate is used as the substrate for the kinase activity of Chk2 in the assay. The IMAP binding reagent stops the kinase reaction. The binding of the binding reagent results in a change in the rate of molecular motion of the peptide and causes an increase in the fluorescence polarization value observed for the fluorescein label attached to the end of the peptide. Thus, inhibition of Chk2 would result in a decrease in fluorescence polarization compared to control.
A specific protocol for screening Compounds for Chk2 inhibitory activity follows.
A Compound is supplied at 1 mM in 0.5 μl DMSO on 384 well plates (such as Greiner or Corning). After thawing, 5 μl DMSO is added to the drug plate. The drug plate is then incubated for 10 minutes to solubilize the Compound. An additional 19.5 μl of reaction buffer (10× stock prepared using 100 mM Tris-HCl, 100 mM MgCl2, 1% BSA, pH 7.2, stored at 4° C.)+1 mM DDT is added to bring the Compound to 4× final concentration. A positive control is also prepared at 4× final concentration. The following control wells are used: less enzyme control (all reagents except enzyme; 5 μl/well), less Compound control (all reagents except Compound; 5 μl/well), positive control (all reagents plus staurosporine at a final concentration of 5 μM; 5 μl/well).
Reagents are then added in the following order to give the following final concentration: 2.5 μl ATP/Chk2tide (Molecular Devices) (10 μM/100 nM final concentration), 1.25 μl Compound (5 μM final concentration inf 5.5% DMSO), and 1.25 μl Chk2 (1:500, 2.4 μg/mL final concentration).
Plates are covered and incubated at room temperature for 60 minutes.
IMAP binding reagent (Molecular Devices) is diluted 1:400 into binding buffer (Molecular Devices). 15 μl of this solution is then added to all wells and the plates are covered and incubated for 30 minutes.
Plates are read using a Tecan Ultra under the fluorescence polarization mode. Gain is set to the less enzyme and less Compound wells for each plate. Excitation 485 nm, emmission 535 nm, Z position 12519 and flashes 5 are used as settings. Raw data from the Tecan reader is imported into an access database for analysis.
Background: In fluorescence polarisation assays a small probe gives low polarisation when free and higher when bound to something large.

The next experiment has as its system mouse thymocytes. The experiment is described as follows: IR-induced apoptosis in mouse thymocytes (PI staining, FACS). The note with it: thymocytes from Chk2+/+ or Chk2-/- mice, 1 μM for 1 h, 5 Gy IR, 16 h. It is filed as cell-based. As for the experimental part:
FIG. 3. […] Thymocytes were isolated from Chk2+/+ or Chk2−/− mice by mechanical disaggregation. The isolated thymocytes were treated in the absence or presence of 1 μM compound 18 or ref^λ (J. Wu et al, Bioorganic and Medicinal Chemistry letters, 2007, 17(1), 172, [N-isobutyl analog of compound 7]) for 1 hour. The cells were then exposed to 5 Gy IR and incubated for 16 hours. The cells were then washed in PBS and fixed in ethanol. Propidium isodide (PI) was added in the presence of RNAse A before being subjected to flow cytometry. The graphs show FACS analysis of the PI stained cells.

The next experiment deals with HDMX in MCF7 cells. In words: HDMX degradation in MCF7 cells following DNA damage (Western blot). Format: cell-based. The note with it: varying concentrations 2.5 h, then 1 μM topotecan 4 h or 10 Gy IR + 4 h. As for the experimental part: FIG. 2. […] MCF7 cells were treated in the absence (control) or presence of compound 18 at varying concentrations for 2.5 hours. The cells were then exposed to either 1 μM topotecan (TPT) for 4 hours or they were exposed to 10 Gy IR and incubated for 4 hours. Whole cell extracts were made and Western blotting was performed to detect HDMX. The levels of HDMX were quantified from the blots and normalized to actin. The normalized levels of HDMX are depicted as bar graphs under the blots.
A general note: Immunoblotting shows a protein as a band on a membrane.

The subject of the next experiment is OVCAR-4 cells. The experiment is described as follows: Combination with camptothecin in OVCAR-4 cells (MTS growth inhibition). Format: cell-based, human. Conditions: 48 h, MTS staining, 40 combinations. As for the experimental part:
FIG. 4. Compound 18 is synergistic with camptothecin (CPT) in OVCAR-4 cells. OVCAR-4 cells were treated with either compound 18 or CPT as single agents in 96 well tissue culture plates. In addition, the cells were exposed to 40 combinations of compound 18 and CPT. The drug treatments were for 48 hours and the cells were then subjected to MTS staining to determine the growth inhibitory effect. The graph represents a 3-dimensional plot of the MTS data obtained. The upper, light gray surface represents a theoretical surface of additivity that was generated from dose response curves of compound 18 alone and CPT alone. The lower, dark grey surface depicts the surface of the combination of compound 18 and CPT that was generated from data obtained in the MTS assay (shown by the blue circles). Data points lying under the green additivity surface are deemed to synergistic combinations. The bar graph on the right is a 2-dimensional representation of 1 combination of 11 μM compound 18 and 6.25 μM CPT taken from the 3-D model.

As usually defined, the pEC50 is the EC50 on a negative log10 scale, so that one unit is a factor of ten.

T1 sequence (O96017 whole entry): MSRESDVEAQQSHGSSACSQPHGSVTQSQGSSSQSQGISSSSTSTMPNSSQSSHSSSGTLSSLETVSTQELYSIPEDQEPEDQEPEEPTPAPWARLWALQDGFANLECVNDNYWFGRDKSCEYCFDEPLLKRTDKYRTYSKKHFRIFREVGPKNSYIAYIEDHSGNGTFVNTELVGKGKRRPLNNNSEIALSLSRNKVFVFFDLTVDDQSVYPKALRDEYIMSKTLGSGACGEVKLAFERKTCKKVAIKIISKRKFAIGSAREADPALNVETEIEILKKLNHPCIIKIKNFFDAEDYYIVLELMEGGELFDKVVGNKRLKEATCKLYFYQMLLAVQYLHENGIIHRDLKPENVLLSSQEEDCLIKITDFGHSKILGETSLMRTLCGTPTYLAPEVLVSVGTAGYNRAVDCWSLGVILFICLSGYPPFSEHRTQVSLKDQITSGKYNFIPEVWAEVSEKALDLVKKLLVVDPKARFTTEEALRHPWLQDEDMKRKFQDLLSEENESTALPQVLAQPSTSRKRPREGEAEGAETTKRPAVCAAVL

`C/C(=N\NC(=N)N)c1ccc(NC(=O)c2cc3cccc([N+](=O)[O-])c3[nH]2)cc1` [Compound 18] showed a pEC50 at Chk2 greater than 7.00. In addition, the “Effect on IR-induced apoptosis” value in the experiment with mouse thymocytes was “abrogation of IR-induced apoptosis”. In addition, in the experiment on HDMX in MCF7 cells, the “Effect on HDMX degradation following DNA damage” value is “Abrogation of HDMX degradation”. Moreover, in the experiment with OVCAR-4 cells, the “Combination effect with camptothecin (CPT)” value is listed as “synergistic”. `C/C(=N\NC(=N)N)c1ccc(NC(=O)Nc2ccc(C)cc2)cc1` [Compound 50] gave a pEC50 on Chk2 of 5.00 to 6.00. In turn, `CCC/C(=N\NC(=N)N)c1ccc(NC(=O)Nc2ccc(/C(C)=N/NC(=N)N)cc2)cc1` [Compound 1] had a pEC50 on Chk2 greater than 7.00.

Regarding `C/C(=N\N/C(N)=N/O)c1ccc(NC(=O)c2cc3cc(C(N)=O)ccc3[nH]2)cc1` [Compound 129], the pEC50 at Chk2 was 6.00 to 6.52. In turn, `C/C(=N\NC(=N)N)c1ccc2[nH]c(C(=O)Nc3cccc(N)c3)cc2c1` [Compound 111] gave a pEC50 on Chk2 of 6.00 to 6.52. The compound `C/C(=N\NC(=N)N)c1ccc(NC(=O)Nc2ccc(-c3csc(NN)n3)cc2)cc1` [Compound 48] had a pEC50 on Chk2 of less than 5.00. Same read-out and setting: next, `CCCOc1ccc2cc(C(=O)Nc3ccc(/C(C)=N/NC(=N)N)cc3)[nH]c2c1` [Compound 90]: 5.00 to 6.00; `COc1ccc2[nH]c(C(=O)Nc3ccc(/C(C)=N/NC(=N)N)cc3)cc2c1` [Compound 10]: greater than 7.00; `COc1cc2cc(C(=O)Nc3ccc(/C(C)=N/NC(=N)N)cc3)[nH]c2cc1OCc1ccccc1` [Compound 29]: 5.00 to 6.00.

At Chk2, `CC(=O)Nc1ccc2cc(C(=O)Nc3ccc(/C(C)=N/NC(=N)N)cc3)[nH]c2c1` [Compound 88] gave a pEC50 of 6.00 to 6.52. Turning to `COc1ccc2oc(C(=O)Nc3ccc(/C(C)=N/NC(=N)N)cc3)cc2c1` [Compound 78], the pEC50 on Chk2 was 6.52 to 7.00. With `CSC(=N)N/N=C(\C)c1ccc(NC(=O)Nc2ccc(C(C)=O)cc2)cc1` [Compound 64], at Chk2, the pEC50 was less than 5.00. On to `COc1ccc2[nH]c(C(=O)Nc3ccc4c(c3)CC/C4=N\NC(=N)N)cc2c1` [Compound 110], for which the pEC50 on Chk2 is less than 5.00. In turn, `C/C(=N/N/C(N)=N\O)c1ccc2[nH]c(C(=O)Nc3ccc(N4CCCCC4)cc3)cc2c1` [Compound 128] had a pEC50 on Chk2 of 6.52 to 7.00. As to `COc1ccc2[nH]c(C(=O)Nc3ccc(/C(C)=N/NC4=NCCN4)cc3)cc2c1` [Compound 23], the pEC50 on Chk2 is greater than 7.00.
